Entries after “also recorded” stand apart in the source; their conditions may differ.
Legend:
CWR22Rv1 xenografts = experiment: Antitumor efficacy in castration-resistant CWR22Rv1 xenograft model; type: in vivo, male NOD SCID mice; settings: 25 mg/kg PO once daily, 16 days; listed as ENZ
Experimental: Following the in vitro studies and determination of the PK parameters, we then investigated the relative efficacy. Gal and the NGGAs in vivo using difficult-to-treat castration-resistant CWR22Rv1 xenografts. Given the enhanced IP and PO PK parameters of VNPP414 and VNPP433-3β over Gal, we decided to use lower doses of the new analogs compared to the previous Gal doses (200 mg/kg, IP/PO). Gal (200 mg/kg) served as positive control, while ENZ (25 mg/kg) administered PO was used as negative control. Male NOD SCID mice bearing CWR22Rv1 tumors were treated with vehicle, ENZ, Gal, VNPP414, and VNPP433-3β for 16 days as described in the Methods and Materials Section. […] In contrast, Gal and the NGGAs caused statistically significant tumor growth inhibition (TGI). […] It is notable that VNPP433-3β (at 7.5- and 15-fold lower molar doses) and VNPP414 (at 4-fold lower molar dose) are more efficacious than Gal. In general, no host toxicities were observed, as monitored by changes in animal body weight (Figure 7C).
Figure 7 Effects of Gal, NGGAs and ENZ in an in vivo castration-resistant prostate cancer model. (A) Mice bearing CWR22Rv1 xenografts (5 mice per group) were treated with vehicle, Gal (100 mg/kg/twice daily), VNPP414 (60 mg/kg, once daily), VNPP433-3β (15 or 30 mg/kg, once daily) and ENZ (25 mg.kg, once daily) 5 days per week for 16 days. Tumor volumes were measured twice a week and the tumors were collected. Tumor growth inhibition (TGI) values are indicated at the right of each growth curve, and the error bars are the SEM. Results are represented as means ± SEM. ^# p = ns (not significant vs. vehicle), ^$ p < 0.0272 vs. vehicle, * p < 0.0035 vs. vehicle, ** p < 0.0025 vs. vehicle and *** p < 0.0008 vs. vehicle. (B) Photographed tumors from each group. (C) Mean body weights of mice determined during the study. (D) Western blot analyses of tumor samples from each experimental group at day 16. […] It is left out because vehicle is a control, not a substance.
Male NOD SCID mice 5–6 weeks of age were obtained from University of Maryland School of Medicine Veterinary Resources (Baltimore, MD, USA. Mice were housed under complete aseptic conditions, fed autoclaved pellets and sterile water ad libitum. Following a week of acclimatization, approximately 5 × 10^6 CWR22Rv1 cells were inoculated one flank f mice. Tumor-bearing mice (tumor volume around ~100 mm^3) were randomized into 6 groups (5 mice in each group; compounds formulated in vehicle) and treated as follows: (i) vehicle control (40% β-cyclodextrin in saline, PO.), (ii) ENZ (25 mg/kg, PO, once daily), (iii) Gal (100mg/kg, PO, twice daily), (iv) VNPP414 (60 mg/kg, PO, once daily), (v) VNPP433-3β (15 mg/kg, PO, once daily), and (vi) VNPP433-3β (30 mg/kg, PO, once daily) for 5 days/week. Tumors were measured twice weekly with calipers and tumor volume was calculated by the formula: length × width^2 × 0.5 (mm^3). Animals were also weighed weekly and monitored for general health status and signs of possible toxicity due to treatments. Mice were sacrificed after the indicated periods of treatment and tumors excised. Tumors were divided and either flash frozen in liquid nitrogen or placed in 10% buffered formalin for western blot analysis.

[1] = tested on: CWR-R1, CWR-R1 (10E), CWR-R1-MTX20nM cells; experiment: Colony formation (clonogenicity) assay; type: cell-based, human; settings: parental CWR-R1 and drug-resistant counterparts, 14 days
Excerpt: (A) Comparative GI50 values of Gal, NGGAs, and enzalutamide (ENZ) in drug-naïve-/-resistant prostate cancer cells. (B) Gal and NGGAs induce G1 cell cycle arrest in LNCaP cells. (C) VNPP414 and VNPP433-3β deplete the cell cycle regulator, cyclin D1, and upregulate p21; “+” indicates specific treatments. (D) Gal cause dose-dependent depletion of cyclin D1. (E) Unlike ENZ, Gal and VNPP433-3β inhibit colony formation of drug-naïve/-resistant cells in vitro. 1000 cells/well (CWR-R1, CWR-R1 (10E), CWR-R1-MTX20nM), seeded in 6-well plates were treated with indicated concentrations of compounds for a period of 14 days. Media containing compounds were replaced every 3 days. Colonies were stained with 0.05% crystal violet. (F) Quantification of colony formation units (CFU) in drug-naive/resistant cells. Colony assays were repeated three times and colonies counted in four quadrants of the wells. Results are represented as averages with S.E.M. (* p < 0.05, ** p < 0.001). Note: the numbers in parentheses in Figure 2B,C,E are concentrations of the agents in µM.
0.1 × 10^3 cells per well were seeded in 6-well plates and allowed to attach overnight (16 h), cells were treated with compounds in regular media (RPMI with 10% FBS) at the indicated concentrations and replaced every 3rd day for 14 days or until visible colonies could be counted. Colonies were washed and stained with 0.05% crystal violet for 30 min. Colonies were scanned and quantified (colonies counted in four quadrants of each well) with ImageJ colony counter. Results are represented as the mean of triplicates.

## CNC(=O)c1ccc(N2C(=S)N(c3ccc(C#N)c(C(F)(F)F)c3)C(=O)C2(C)C)cc1F [Enzalutamide, reference compound]
CWR22Rv1 xenografts
  tumor volume versus vehicle-treated control (in words): ineffective; also recorded: no statistically significant difference
[1]
  inhibition of colony formation: ineffective at the concentrations tested
